Calls of active or inactive are those of the source. The rule behind the calls is not given here.
Assays:
PANC-1 [1] = test: Effect on TBC1D26 gene expression in human PANC1 cells at IC50 after 48 hrs by microarray analysis; format: functional, cell-based
HepG2 [2] = test: Effect on DKK1 gene expression in human HepG2 cells at IC50 after 48 hrs by microarray analysis; format: functional, cell-based
HepG2 [3] = test: Effect on TUBB1 gene expression in human HepG2 cells at IC50 after 48 hrs by microarray analysis; format: functional, cell-based
HepG2 [4] = test: Effect on TOP2A gene expression in human HepG2 cells at IC50 by SYBR green-dye based qRT-PCR analysis relative to beta-actin; format: functional
HepG2 [5] = test: Effect on GADD45A gene expression in human HepG2 cells at IC50 by SYBR green-dye based qRT-PCR analysis relative to beta-actin; format: functional
PANC-1 [6] = test: Effect on HEATR3 gene expression in human PANC1 cells at IC50 after 48 hrs by microarray analysis; format: functional, cell-based
PANC-1 [7] = test: Effect on CYP1A1 gene expression in human PANC1 cells at IC50 after 48 hrs by microarray analysis; format: ADME, cell-based; settings: panc-1, 48 h
PANC-1 [8] = test: Effect on PAH gene expression in human PANC1 cells at IC50 after 48 hrs by microarray analysis; format: functional, cell-based
PANC-1 [9] = test: Effect on ZNF43 gene expression in human PANC1 cells at IC50 after 48 hrs by microarray analysis; format: functional, cell-based
PANC-1 [10] = test: Effect on HSPE1 gene expression in human PANC1 cells at IC50 after 48 hrs by microarray analysis; format: functional, cell-based
PANC-1 [11] = test: Effect on ELP2P gene expression in human PANC1 cells at IC50 after 48 hrs by microarray analysis; format: functional, cell-based
HepG2 [12] = test: Effect on PCDH21 gene expression in human HepG2 cells at IC50 after 48 hrs by microarray analysis; format: functional, cell-based
HepG2 [13] = test: Effect on CASP2 gene expression in human HepG2 cells at IC50 after 48 hrs by microarray analysis; format: functional, cell-based
HepG2 [14] = test: Effect on TOP3B gene expression in human HepG2 cells at IC50 after 48 hrs by microarray analysis; format: functional, cell-based
HepG2 [15] = test: Effect on TNFRSF 19 gene expression in human HepG2 cells at IC50 after 48 hrs by microarray analysis; format: functional, cell-based
PANC-1 [16] = test: Effect on ITGA2 gene expression in human PANC1 cells at IC50 after 48 hrs by microarray analysis; format: functional, cell-based
PANC-1 [17] = test: Induction of apoptosis in human PANC1 cells assessed as increase in caspase-3/7 activity after 24 hrs by Caspase-Glo 3/7 luminescence assay; format: functional, cell-based
PANC-1 [18] = test: Effect on CAMK2N1 gene expression in human PANC1 cells at IC50 after 48 hrs by microarray analysis; format: functional, cell-based
HepG2 [19] = test: Effect on CYP1A1 gene expression in human HepG2 cells at IC50 after 48 hrs by microarray analysis; format: ADME, cell-based; settings: hepg2, 48 h
hTERT-BJ [20] = test: Cytotoxicity against hTERT-BJ cells at 12.50 uM after 48 hrs by resazurin dye-based fluorescence assay relative to control; format: cell-based; settings: human, 12.5 µM
HepG2 [21] = test: Effect on CYP3A4 gene expression in human HepG2 cells at IC50 after 48 hrs by microarray analysis; format: ADME, cell-based; settings: hepg2, 48 h
[22] = Inhibition of GST (unknown origin) using CDNB as substrate by spectrophotometric analysis; settings: human
[23] = Selectivity index, ratio of IC50 for hTERT-RPE1 cells to IC50 for human CCRF-CEM cells; format: toxicity; settings: hTERT-RPE1 cells versus CCRF-CEM cells, read-out: Ratio IC50
PANC-1 [24] = test: Effect on RBM39 gene expression in human PANC1 cells at IC50 after 48 hrs by microarray analysis; format: functional, cell-based
HepG2 [25] = test: Effect on TOP2B gene expression in human HepG2 cells at IC50 after 48 hrs by microarray analysis; format: functional, cell-based
Cytochrome P450 3A4 = Cytochrome P450 3A4 (Homo sapiens, UniProt P08684); test: Inhibition of human recombinant CYP3A4 using luciferin as substrate preincubated for 10 mins followed by substrate addition and measured after 50 mins in presence of NADPH by CYP450-Glo assay; format: ADME; settings: recombinant enzyme
Chain of Cytochrome P450 3A4 (P08684 whole entry): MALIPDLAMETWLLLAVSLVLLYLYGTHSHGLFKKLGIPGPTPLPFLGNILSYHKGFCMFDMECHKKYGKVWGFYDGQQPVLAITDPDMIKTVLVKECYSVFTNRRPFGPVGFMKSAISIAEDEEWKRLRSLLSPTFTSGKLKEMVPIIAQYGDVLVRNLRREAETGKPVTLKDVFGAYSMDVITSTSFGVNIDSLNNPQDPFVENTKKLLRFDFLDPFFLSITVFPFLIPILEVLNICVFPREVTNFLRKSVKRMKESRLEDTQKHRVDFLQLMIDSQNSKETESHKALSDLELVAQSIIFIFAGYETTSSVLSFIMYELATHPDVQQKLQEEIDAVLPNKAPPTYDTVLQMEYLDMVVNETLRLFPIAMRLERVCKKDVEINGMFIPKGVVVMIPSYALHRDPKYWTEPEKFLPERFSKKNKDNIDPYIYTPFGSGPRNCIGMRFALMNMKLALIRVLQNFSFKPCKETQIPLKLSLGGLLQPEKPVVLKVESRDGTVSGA

PANC-1 [26] = test: Effect on CTBP2 gene expression in human PANC1 cells at IC50 after 48 hrs by microarray analysis; format: functional, cell-based
HepG2 [27] = test: Effect on GADD45A gene expression in human HepG2 cells at IC50 after 48 hrs by microarray analysis; format: functional, cell-based
PANC-1 [28] = test: Effect on CASP1 gene expression in human PANC1 cells at IC50 after 48 hrs by microarray analysis; format: functional, cell-based
HepG2 [29] = test: Effect on TOP2A gene expression in human HepG2 cells at IC50 after 48 hrs by microarray analysis; format: functional, cell-based
HepG2 [30] = test: Effect on TMEM132D gene expression in human HepG2 cells at IC50 after 48 hrs by microarray analysis; format: functional, cell-based
hTERT-BJ [31] = test: Cytotoxicity against hTERT-BJ cells at 50 uM after 48 hrs by resazurin dye-based fluorescence assay relative to control; format: cell-based; settings: human
HepG2 [32] = test: Effect on CASP7 gene expression in human HepG2 cells at IC50 after 48 hrs by microarray analysis; format: functional, cell-based
HepG2 [33] = test: Effect on ARK1B15 gene expression in human HepG2 cells at IC50 after 48 hrs by microarray analysis; format: functional, cell-based
PANC-1 [34] = test: Effect on NBPF20 gene expression in human PANC1 cells at IC50 after 48 hrs by microarray analysis; format: functional, cell-based
HepG2 [35] = test: Antiproliferative activity against human HepG2 cells after 48 hrs by resazurin dye-based fluorescence assay; format: functional, cell-based; settings: HepG2, 48 h
HepG2 [36] = test: Effect on GST M1 gene expression in human HepG2 cells at IC50 after 48 hrs by microarray analysis; format: functional, cell-based
HepG2 [37] = test: Effect on WNT2B gene expression in human HepG2 cells at IC50 after 48 hrs by microarray analysis; format: functional, cell-based
PANC-1 [38] = test: Effect on TOP2A gene expression in human PANC1 cells at IC50 after 48 hrs by microarray analysis; format: functional, cell-based
HepG2 [39] = test: Effect on SYT2 gene expression in human HepG2 cells at IC50 after 48 hrs by microarray analysis; format: functional, cell-based
HepG2 [40] = test: Effect on GOLPH4 gene expression in human HepG2 cells at IC50 after 48 hrs by microarray analysis; format: functional, cell-based
PANC-1 [41] = test: Effect on CASP7 gene expression in human PANC1 cells at IC50 after 48 hrs by microarray analysis; format: functional, cell-based
PANC-1 [42] = test: Effect on NSBP1 gene expression in human PANC1 cells at IC50 after 48 hrs by microarray analysis; format: functional, cell-based
[43] = Selectivity index, ratio of IC50 for hTERT-RPE1 cells to IC50 for human HepG2 cells; format: toxicity; settings: hTERT-RPE1 cells versus HepG2 cells, read-out: Ratio IC50
HepG2 [44] = test: Effect on GST A1 gene expression in human HepG2 cells at IC50 after 48 hrs by microarray analysis; format: functional, cell-based
HepG2 [45] = test: Effect on CASP7 gene expression in human HepG2 cells at IC50 by SYBR green-dye based qRT-PCR analysis relative to beta-actin; format: functional
HepG2 [46] = test: Effect on INHBE gene expression in human HepG2 cells at IC50 after 48 hrs by microarray analysis; format: functional, cell-based

O=C(N/N=C/c1cc2ccccc2nc1Cl)c1cc2cc(Br)ccc2oc1=O
Activity (PANC-1 [1]): Active
Activity (HepG2 [2]): Active
Activity (HepG2 [3]): Active
fold change (FC) (HepG2 [4]): -1.54
fold change (FC) (HepG2 [5]): 3.52
Activity (PANC-1 [6]): Active
Activity (PANC-1 [7]): Active
Activity (PANC-1 [8]): Active
Activity (PANC-1 [9]): Active
Activity (PANC-1 [10]): Active
Activity (PANC-1 [11]): Active
Activity (HepG2 [12]): Active
Activity (HepG2 [13]): Active
Activity (HepG2 [14]): Active
Activity (HepG2 [15]): Active
Activity (PANC-1 [16]): Active
Activity (PANC-1 [17]): Dose-dependent effect
Activity (PANC-1 [18]): Active
Activity (HepG2 [19]): Active
Activity (hTERT-BJ [20]): 3.63%
Activity (HepG2 [21]): Active
inhibition (INH) [22]: Dose-dependent effect
selectivity ratio [23]: > 6.71
Activity (PANC-1 [24]): Active
Activity (HepG2 [25]): Active
inhibition (INH) (Cytochrome P450 3A4): Dose-dependent effect
Activity (PANC-1 [26]): Active
Activity (HepG2 [27]): Active
Activity (PANC-1 [28]): Active
Activity (HepG2 [29]): Active
Activity (HepG2 [30]): Active
Activity (hTERT-BJ [31]): 5.18%
Activity (HepG2 [32]): Active
Activity (HepG2 [33]): Active
Activity (PANC-1 [34]): Active
IC50 (HepG2 [35]): 9.42 µM
Activity (HepG2 [36]): Active
Activity (HepG2 [37]): Active
Activity (PANC-1 [38]): Active
Activity (HepG2 [39]): Active
Activity (HepG2 [40]): Active
Activity (PANC-1 [41]): Active
Activity (PANC-1 [42]): Active
selectivity ratio [43]: > 5.31
Activity (HepG2 [44]): Active
fold change (FC) (HepG2 [45]): 2.45
Activity (HepG2 [46]): Active
